Source: publication PMC10060354, “Discovery of a small molecule ligand of FRS2 that inhibits invasion and tumor growth” (Cellular Oncology, 2022)
Where two headings read alike, the source gives them in different places.

Key:
[1] = Cell viability (cytotoxicity, MTT) using HepG2; assay type: cell-based, human; conditions: human, HepG2 cells, 72 h, summary sheet, read-out: MTT (AC50) Conc at which 50% of maximum efficacy is reached
Procedure: (§1) HepG2 human hepatocellular carcinoma cells were plated on 96-well tissue culture polystyrene plates for 24 h prior to dosing of the cells. The shortlisted hits were diluted in DMSO and serial dilutions are made 1% DMSO in growth media. Compounds at 8 concentrations in triplicate was then incubated for 72 h. Appropriate blanks and controls were run alongside the assay. One h prior to the end of the incubation period, the cells were loaded with MTT [yellow; 3-(4,5-dimethyl-2-thiazolyl)-2,5-diphenyl-2H-tetrazolium bromide], the plates were dried and re-solubilized using DMSO. The plates were then scanned at 570 nm using a plate reader.
(§2) The minimum effective concentration was determined from the lowest concentration whose mean value exceeds the significance level, provided either a clear dose–response relationship was observed, or at least two consecutive concentration points were above the significance level.

[2] = tested on: HepG2 human hepatocellular carcinoma cells; test: Cell viability (cytotoxicity, MTT) using HepG2; assay type: cell-based; conditions: for MEC: 72h, 3 replicas, NR = No response (Summary sheet); for MTT (MEC) Minimum effective concentration / MTT (AC50) Conc at which 50% of maximum efficacy is reached: 72 h, summary sheet
Procedure: as §1, §2

[3] = Semi-thermodynamic solubility; assay type: physicochemical; conditions: for solubility / solubility thermodynamic: PBS, aqueous buffer, thermodynamic from solid; for solubility: Room Temp, Overnight, LC-MSMS; for solubility thermodynamic: overnight; for solubility thermodynamic / Solubility (class in words): summary sheet
Procedure: In vitro ADME-T assays were performed by Cyprotex (Cyprotex Discovery, Cheshire, UK). […] The solution was agitated at ambient temperature overnight. The solutions were then centrifuged for 30 min at 3000 rpm at RT. The supernatant was removed and centrifuged for a further 30 min under the same conditions. An aliquot of the resulting supernatant was diluted in 50% methanol in water (containing an internal standard for MS analysis) prior to analysis by LC–MS/MS. […] These stocks were diluted in 50% methanol in water (containing an internal standard for MS analysis) prior to analysis by LC–MS/MS. The solubility of the shortlisted hits was calculated from a linear or quadratic fit of the standard curve.

DAOY cells = test: Spheroid invasion assay (SIA), bFGF-induced collagen I invasion; assay type: cell-based, human; conditions: for EC50: DAOY cells, n = 3 technical replicas, read-out: EC50 for the inhibition of bFGF-induced collagen I invasion; for functional activity in SIA (result in words): DAOY, bFGF-induced, 1, 5 and 10 µM
Method in brief: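 Spheroids formed over 24–72 h were embedded in collagen I (final 1.75 mg/ml) and stimulated with bFGF (100 ng/ml unless stated), HGF 30 ng/ml or EGF 20 ng/ml with compound in DMSO. Invasion distance was quantified 24–48 h after embedding.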

[4] = Microsomal metabolic stability; assay type: in vitro ADME; conditions: human, pooled liver microsomes; for half-life at 1 µM: pH 7.4, liver microsomes; for microsomal CLint at 1 µM: pH 7.4, read-out: Metabolic stability - Intrinsic clearance (CI)
Procedure: Pooled liver microsomes were purchased from Xenotech (H0500) and were stored according to manufacturer’s instructions prior to use. […] A minus co-factor control incubation was included for each compound tested where 0.1 M phosphate buffer pH 7.4 was added instead of NADPH. Two control compounds were included with each species. All incubations were performed singularly for each shortlisted hit. Each compound was incubated for 0, 5, 15, 30 and 45 min. The minus co-factor was incubated for 45 min only. The reactions were stopped by transferring incubate into acetonitrile at the appropriate time points in a 1:3 ratio. The termination plates were centrifuged at 3000 rpm for 20 min at 4 °C to precipitate the protein. Following protein precipitation, the supernatant were combined in cassette of up to 4 compounds, internal standard for MS analysis was added and samples were analyzed using LC–MS/MS. From a plot of In peak area ratio (compound peak area/internal standard peak area) against time, the gradient of the lines were determined. Subsequently, half-life and intrinsic clearance were calculated using the following equations. Eliminationrateconstant(k)=(-gradient)Half-life(t1/2)(min)=0.693/kIntrinsicclearance(CLint)(μl/min/mgprotein)=Vx0.693/t1/2 where V = Incubation volume (µl) / Microsomal protein (mg)

[5] = CaCo-2 permeability (bi-directional); conditions: human
Procedure: Caco-2 cells obtained from the ATCC were used between passage numbers 40—60. Cells were seeded onto Millipore Multiscreen Transwell plates at 1 × 10^5 cells/cm^2. The cells were cultured in DMEM and media was changed every two or three days. On day 20, the permeability study was performed. […] Cells were then incubated with HBSS at the desired pH in both apical and basolateral compartments for 40 min to stabilize physiological parameters.
The fluorescent integrity marker lucifer yellow was also included in the dosing solution. Analytical standards were prepared from test compound DMSO dilutions and transferred to buffer, maintaining a 1% v/v DMSO concentration.
For assessment of A-B permeability, HBSS was removed from the apical compartment and replaced with test compound dosing solution. The apical compartment insert was then placed into a companion plate containing fresh buffer (containing 1% v/v DMSO). For assessment of B-A permeability, HBSS was removed from the companion plate and replaced with test compound dosing solution. Fresh buffer (containing 1% v/v DMSO) was added to the apical compartment insert, which was then placed into the companion plate.
Compound permeability was assessed in duplicate. Compounds of known permeability characteristics were run as controls on each assay plate.
Test and control compounds were quantified by LC–MS/MS cassette analysis using a 7-point calibration with appropriate dilution of the samples. The starting concentration (C0) was determined from the dosing solution and the experimental recovery calculated from C0 and both apical and basolateral compartment concentrations. The integrity of the monolayer throughout the experiment was checked by monitoring lucifer yellow permeation using fluorimetric analysis.
The permeability coefficient (Papp) for each compound was calculated from the following equation: Papp=dQ/dtC0×A where dQ/dt was the rate of permeation of the drug across the cells, C0 was the donor compartment concentration at time zero and A was the area of the cell monolayer. C0 was obtained from analysis of the dosing solution.
Efflux ratio (ER) was calculated from mean A-B and B-A data. This was derived from: ER=Papp(B-A)Papp(A-B)

[6] = read-out: Solubility Replicate 1
[7] = read-out: Solubility Replicate 2
[8] = read-out: Solubility Replicate 3
[9] = read-out: Solubility Replicate 4
[10] = Caco-2, Mean Papp A-B, Caco-2, summary sheet
[11] = Caco-2, Mean Papp B-A, Caco-2, summary sheet
[12] = Caco-2, pH 7.4, Mean % Recovery A2B, HBSS/HBSS, pH 7.4/7.4
[13] = Caco-2, pH 7.4, Mean % Recovery B2A, HBSS/HBSS, pH 7.4/7.4
[14] = Caco-2, pH 7.4, Mean Papp A2B, HBSS/HBSS, pH 7.4/7.4
[15] = Caco-2, pH 7.4, Mean Papp B2A, HBSS/HBSS, pH 7.4/7.4
[16] = Caco-2, pH 7.4, Papp A2B Replicate 1, HBSS/HBSS, pH 7.4/7.4
[17] = Caco-2, pH 7.4, Papp A2B Replicate 2, HBSS/HBSS, pH 7.4/7.4
[18] = Caco-2, pH 7.4, Papp B2A Replicate 1, HBSS/HBSS, pH 7.4/7.4
[19] = Caco-2, pH 7.4, Papp B2A Replicate 2, HBSS/HBSS, pH 7.4/7.4

| SMILES | MTT (MEC) Minimum effective concentration [2] | solubility ([3]; read-out: Mean Solubility) [µM] | solubility [3, 6] [µM] | solubility [3, 7] [µM] | solubility [3, 8] [µM] | solubility [3, 9] [µM] | solubility thermodynamic [3] [µM] | Solubility (class in words) [3] | half-life at 1 µM ([4]; read-out: t1/2) [min] | microsomal CLint at 1 µM [4] [µL/min/mg] | efflux ratio at 120 min, 10 μM ([5]; Caco-2) | Papp A→B at 120 min, 10 μM [5, 10] [×10⁻⁶ cm/s] | Papp B→A at 120 min, 10 μM [5, 11] [×10⁻⁶ cm/s] | efflux ratio at 120 min, 10 μM ([5]; Caco-2, pH 7.4) | recovery at 120 min, 10 µM [5, 12] [%] | recovery at 120 min, 10 µM [5, 13] [%] | Papp A→B at 120 min, 10 μM [5, 14] [×10⁻⁶ cm/s] | Papp B→A at 120 min, 10 μM [5, 15] [×10⁻⁶ cm/s] | Papp B→A at 120 min, 10 μM [5, 18] [×10⁻⁶ cm/s] | Papp B→A at 120 min, 10 μM [5, 19] [×10⁻⁶ cm/s] | further results |
| --- | --- | --- | --- | --- | --- | --- | --- | --- | --- | --- | --- | --- | --- | --- | --- | --- | --- | --- | --- | --- | --- |
| COc1ncc(C(C)NC2CC(C)(C)NC(C)(C)C2)cc1Cl (centres unmarked) [Compound 3.3] | 75.8 µM | > 100 | > 100 | > 100 | > 100 | > 100 | > 100 | Freely | 3.91 | 355 | 8.01 | 4.79 | 38.3 | 8.01 | 73.1 | 104 | 4.79 | 38.3 | 39.9 | 36.8 | AC50 at 72 h [1]: > 100 µM; MEC [2]: 75.8 µM; EC50 (DAOY cells; Homo sapiens, Daoy): 14.3 µM; Papp A→B at 120 min, 10 μM [5, 16]: 4.98 ×10⁻⁶ cm/s; Papp A→B at 120 min, 10 μM [5, 17]: 4.59 ×10⁻⁶ cm/s |
| O=C(O)c1c(Cl)cc(O)c2c1C1C=CCC1C(c1ccc(Cl)cc1)N2 (centres unmarked) [Compound 13] | No response | > 100 | > 100 | > 100 | > 100 | > 100 | > 100 | Freely | 83 | 16.7 | 1.5 | 1.94 | 2.91 | 1.5 | 86.6 | 85 | 1.94 | 2.91 | 2.62 | 3.2 | MTT (AC50) Conc at which 50% of maximum efficacy is reached [2]: No response; functional activity in SIA (result in words) (DAOY cells): mild but dose-depended reduction; Papp A→B at 120 min, 10 μM [5, 16]: 1.02 ×10⁻⁶ cm/s; Papp A→B at 120 min, 10 μM [5, 17]: 2.86 ×10⁻⁶ cm/s |
| O=[N+]([O-])c1c(Cl)cc(O)c2c1C1C=CCC1C(c1ccc(Cl)cc1Cl)N2 (centres unmarked) [Compound 8] | 6.79 µM | > 100 | > 100 | – | > 100 | > 100 | > 100 | Freely | 3.35 | 414 | – | – | 7.05 | – | 32.1 | 33.3 | – | 7.05 | 7.14 | 6.96 | AC50 at 72 h [1]: 12.4 µM; MEC [2]: 6.79 µM; functional activity in SIA (result in words) (DAOY cells): invasion inhibition only at the highest concentration |
| CC(C)C[C@@H](CO)NCc1cc(O)c2cc(F)ccc2n1 [Compound 3.14] | No response | > 100 | > 100 | > 100 | > 100 | > 100 | > 100 | Freely | 29.1 | 47.6 | 8.64 | 4.7 | 40.6 | 8.64 | 70.2 | 73.4 | 4.7 | 40.6 | 40 | 41.2 | toxicity in the MTT assay (result in words) [2]: no toxicity; MTT (AC50) Conc at which 50% of maximum efficacy is reached [2]: No response; solubility (result in words) ([3]; Supplementary Table 2): freely soluble; EC50 (DAOY cells): 5.92 µM; EC50 (DAOY cells; Homo sapiens, Daoy): 5.92 µM; half-life at 1 µM ([4]; read-out: t1/2 of clearance (CL1/2), in vitro): 29 min; Papp A→B at 120 min, 10 μM [5, 16]: 4.69 ×10⁻⁶ cm/s; Papp A→B at 120 min, 10 μM [5, 17]: 4.71 ×10⁻⁶ cm/s |
